Results published in ChEMBL document CHEMBL1201862, “PubChem BioAssay data set” (2004).
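Briefly, cells in 96-well plates were exposed to five compound concentrations for 48 h, and endpoints were estimated by linear interpolation. The concentration for 50% growth inhibition is given as GI50.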 Activity calls are given as the source filed them. Rule as the data show it: active = GI50 up to about 1.1 µM and inactive = higher.

Legend:
Test in all cases: NCI anticancer screen, dose series, 48 h
HT-29 = tested on: HT-29
NCI-H23 = tested on: NCI-H23
TK-10 = tested on: TK-10
T47D = tested on: T47D
RPMI-8226 = tested on: RPMI-8226
SNB-19 = tested on: SNB-19
SK-MEL-2 = tested on: SK-MEL-2
SK-OV-3 = tested on: SK-OV-3
Hs-578T = tested on: Hs-578T
A498 = tested on: A498
SNB-75 = tested on: SNB-75
MDA-N = tested on: MDA-N
OVCAR-5 = tested on: OVCAR-5
SF-539 = tested on: SF-539
SK-MEL-5 = tested on: SK-MEL-5
CCRF-CEM = tested on: CCRF-CEM
SW-620 = tested on: SW-620
MDA-MB-231 = tested on: MDA-MB-231
KM12 = tested on: KM12
OVCAR-4 = tested on: OVCAR-4

SMILES: Cc1ccc(S(=O)(=O)NNC2Oc3cc4c(cc3C(c3ccccc3O)C2C)OCO4)cc1 (centres undefined)
- GI50 (HT-29): 14.3 µM (inactive)
- GI50 (NCI-H23): 15.7 µM (inactive)
- GI50 (TK-10): 15.5 µM (inactive)
- GI50 (T47D): 12 µM (inactive)
- GI50 (RPMI-8226): 12.2 µM (inactive)
- GI50 (SNB-19): 12.7 µM (inactive)
- GI50 (SK-MEL-2): 9.62 µM (inactive)
- GI50 (SK-OV-3): 21.7 µM (inactive)
- GI50 (Hs-578T): 10.9 µM (inactive)
- GI50 (A498): 16.8 µM (inactive)
- GI50 (SNB-75): 10.9 µM (inactive)
- GI50 (MDA-N): 12.3 µM (inactive)
- GI50 (OVCAR-5): 16.1 µM (inactive)
- GI50 (SF-539): 16.9 µM (inactive)
- GI50 (SK-MEL-5): 14.5 µM (inactive)
- GI50 (CCRF-CEM): 10.2 µM (inactive)
- GI50 (SW-620): 13.7 µM (inactive)
- GI50 (MDA-MB-231): 16 µM (inactive)
- GI50 (KM12): 12.2 µM (inactive)

SMILES: Cn1c(=O)ccc2c(=O)c3ccccc3oc21
- GI50 (HT-29): > 100 µM (inactive)
- GI50 (NCI-H23): > 100 µM (inactive)
- GI50 (TK-10): > 100 µM (inactive)
- GI50 (T47D): > 100 µM (inactive)
- GI50 (SNB-19): > 100 µM (inactive)
- GI50 (SK-MEL-2): > 100 µM (inactive)
- GI50 (SK-OV-3): > 100 µM (inactive)
- GI50 (Hs-578T): > 100 µM (inactive)
- GI50 (A498): > 100 µM (inactive)
- GI50 (SNB-75): 0.029 µM (active)
- GI50 (MDA-N): > 100 µM (inactive)
- GI50 (OVCAR-5): > 100 µM (inactive)
- GI50 (OVCAR-4): > 100 µM (inactive)
- GI50 (SF-539): > 100 µM (inactive)
- GI50 (SK-MEL-5): > 100 µM (inactive)
- GI50 (CCRF-CEM): > 100 µM (inactive)
- GI50 (SW-620): > 100 µM (inactive)
- GI50 (MDA-MB-231): > 100 µM (inactive)
- GI50 (KM12): > 100 µM (inactive)

SMILES: CC(C)(CCCCC(C)(C)NC1=NCCO1)NC1=NCCO1
- GI50 (HT-29): > 10 µM (inactive)
- GI50 (NCI-H23): > 10 µM (inactive)
- GI50 (TK-10): > 10 µM (inactive)
- GI50 (T47D): > 10 µM (inactive)
- GI50 (RPMI-8226): > 10 µM (inactive)
- GI50 (SNB-19): > 10 µM (inactive)
- GI50 (SK-MEL-2): > 10 µM (inactive)
- GI50 (SK-OV-3): > 10 µM (inactive)
- GI50 (Hs-578T): > 10 µM (inactive)
- GI50 (A498): > 10 µM (inactive)
- GI50 (SNB-75): > 10 µM (inactive)
- GI50 (MDA-N): > 10 µM (inactive)
- GI50 (OVCAR-5): > 10 µM (inactive)
- GI50 (OVCAR-4): > 10 µM (inactive)
- GI50 (SF-539): > 10 µM (inactive)
- GI50 (SK-MEL-5): > 10 µM (inactive)
- GI50 (CCRF-CEM): > 10 µM (inactive)
- GI50 (SW-620): > 10 µM (inactive)
- GI50 (MDA-MB-231): > 10 µM (inactive)
- GI50 (KM12): > 10 µM (inactive)

SMILES: C=C1C(=O)OC2/C=C(\C)CC/C=C(/C)CC(OC(=O)/C(=C/CO)CO)C12 (centres undefined)
- GI50 (HT-29): 27.2 µM (inactive)
- GI50 (NCI-H23): 18.2 µM (inactive)
- GI50 (TK-10): 15.7 µM (inactive)
- GI50 (T47D): > 10 µM (inactive)
- GI50 (RPMI-8226): 23.2 µM (inactive)
- GI50 (SNB-19): 65 µM (inactive)
- GI50 (SK-MEL-2): 25 µM (inactive)
- GI50 (SK-OV-3): > 100 µM (inactive)
- GI50 (Hs-578T): 39.7 µM (inactive)
- GI50 (A498): > 10 µM (inactive)
- GI50 (SNB-75): 45.4 µM (inactive)
- GI50 (MDA-N): 20.5 µM (inactive)
- GI50 (OVCAR-5): 18.7 µM (inactive)
- GI50 (OVCAR-4): 33.6 µM (inactive)
- GI50 (SF-539): 24.5 µM (inactive)
- GI50 (SK-MEL-5): 17.3 µM (inactive)
- GI50 (CCRF-CEM): 6.43 µM (inactive)
- GI50 (SW-620): 21.4 µM (inactive)
- GI50 (MDA-MB-231): > 10 µM (inactive)
- GI50 (KM12): > 100 µM (inactive)

SMILES: O=C1CC2(CCC(O)(c3ccco3)C(C(=O)c3ccco3)C2)C(=O)c2ccccc2N1 (centres undefined)
- GI50 (HT-29): > 100 µM (inactive)
- GI50 (NCI-H23): > 100 µM (inactive)
- GI50 (TK-10): > 100 µM (inactive)
- GI50 (T47D): 26.1 µM (inactive)
- GI50 (SK-MEL-2): > 100 µM (inactive)
- GI50 (SK-OV-3): > 100 µM (inactive)
- GI50 (Hs-578T): 55.1 µM (inactive)
- GI50 (A498): > 100 µM (inactive)
- GI50 (SNB-75): 32.2 µM (inactive)
- GI50 (MDA-N): > 100 µM (inactive)
- GI50 (OVCAR-5): > 100 µM (inactive)
- GI50 (OVCAR-4): 17.3 µM (inactive)
- GI50 (SF-539): > 100 µM (inactive)
- GI50 (SK-MEL-5): 51.4 µM (inactive)
- GI50 (CCRF-CEM): > 10 µM (inactive)
- GI50 (SW-620): > 100 µM (inactive)
- GI50 (MDA-MB-231): > 100 µM (inactive)

SMILES: NC1C2C=CC(C2)C1C(=O)O (centres undefined)
- GI50 (HT-29): > 100 µM (inactive)
- GI50 (NCI-H23): > 100 µM (inactive)
- GI50 (TK-10): > 100 µM (inactive)
- GI50 (T47D): > 100 µM (inactive)
- GI50 (RPMI-8226): > 100 µM (inactive)
- GI50 (SNB-19): > 100 µM (inactive)
- GI50 (SK-MEL-2): > 100 µM (inactive)
- GI50 (SK-OV-3): > 100 µM (inactive)
- GI50 (Hs-578T): > 100 µM (inactive)
- GI50 (A498): > 100 µM (inactive)
- GI50 (SNB-75): > 100 µM (inactive)
- GI50 (MDA-N): > 100 µM (inactive)
- GI50 (OVCAR-5): > 100 µM (inactive)
- GI50 (OVCAR-4): > 100 µM (inactive)
- GI50 (SF-539): 9.08 µM (inactive)
- GI50 (SK-MEL-5): > 100 µM (inactive)
- GI50 (CCRF-CEM): > 100 µM (inactive)
- GI50 (SW-620): > 100 µM (inactive)
- GI50 (MDA-MB-231): > 100 µM (inactive)
- GI50 (KM12): > 100 µM (inactive)

SMILES: O=C1C=CC2(O[C@@H](Cc3ccccc3)[C@H](Cc3ccccc3)O2)C(SC(=O)c2ccccc2)C1 (some centres undefined)
- GI50 (HT-29): 1.64 µM (inactive)
- GI50 (NCI-H23): 1.69 µM (inactive)
- GI50 (TK-10): 1.54 µM (inactive)
- GI50 (T47D): 0.764 µM (active)
- GI50 (RPMI-8226): 0.292 µM (active)
- GI50 (SNB-19): 1.94 µM (inactive)
- GI50 (SK-MEL-2): 1.66 µM (inactive)
- GI50 (SK-OV-3): 2.75 µM (inactive)
- GI50 (Hs-578T): 1.38 µM (inactive)
- GI50 (A498): 4.93 µM (inactive)
- GI50 (SNB-75): 1.91 µM (inactive)
- GI50 (MDA-N): 0.853 µM (active)
- GI50 (OVCAR-5): 0.439 µM (active)
- GI50 (OVCAR-4): 1.47 µM (inactive)
- GI50 (SF-539): 1.66 µM (inactive)
- GI50 (SK-MEL-5): 1.66 µM (inactive)
- GI50 (CCRF-CEM): 0.208 µM (active)
- GI50 (SW-620): 0.231 µM (active)
- GI50 (MDA-MB-231): 2.52 µM (inactive)
- GI50 (KM12): 2.31 µM (inactive)

SMILES: O=C1N[C@@H]([C@H](CCCCCO)OC(=O)c2ccccc2)CO1
- GI50 (HT-29): > 100 µM (inactive)
- GI50 (TK-10): > 100 µM (inactive)
- GI50 (T47D): > 100 µM (inactive)
- GI50 (RPMI-8226): > 100 µM (inactive)
- GI50 (SNB-19): > 100 µM (inactive)
- GI50 (SK-MEL-2): > 100 µM (inactive)
- GI50 (SK-OV-3): > 100 µM (inactive)
- GI50 (Hs-578T): > 100 µM (inactive)
- GI50 (A498): > 100 µM (inactive)
- GI50 (SNB-75): > 100 µM (inactive)
- GI50 (MDA-N): > 100 µM (inactive)
- GI50 (OVCAR-5): > 100 µM (inactive)
- GI50 (OVCAR-4): > 100 µM (inactive)
- GI50 (SF-539): > 100 µM (inactive)
- GI50 (SK-MEL-5): > 100 µM (inactive)
- GI50 (CCRF-CEM): > 100 µM (inactive)
- GI50 (SW-620): > 100 µM (inactive)
- GI50 (MDA-MB-231): 3.18 µM (inactive)
- GI50 (KM12): > 100 µM (inactive)
